From patent US9919998B2, “Antibacterial agents: Nα-aroyl-N-aryl-phenylalaninamides” (priority 2014, dated 2018)
Converted amounts (≈) assume the structure as drawn. Read-outs that look alike come from different tables or passages of the source.

What was measured:
Type in all cases: cell-based
[1] = system: Mycobacterium tuberculosis H37Rv; assay: Microplate Alamar Blue assay (MABA) MIC, M. tuberculosis; conditions: read-out: MIC Mycobacterium tuberculosis H37Rv
From the text: (§1) Minimal inhibitory concentrations (MICs) in Mycobacterium tuberculosis H37Rv and Mycobacterium avium ATCC 25291 were quantified using microplate Alamar Blue assays as described (MABA; [Collins, L. & Franzblau, S. (1997) Microplate Alamar Blue assay versus BACTEC 460 system for high-throughput screening of compounds against Mycobacterium tuberculosis and Mycobacterium avium. Antimicrob. Agents Chemother. 41, 1004-1009]).

[2] = system: Mycobacterium smegmatis ATCC 19420; assay: Broth microdilution MIC, M. smegmatis; conditions: Mycolicibacterium smegmatis
From the text: MICs in Mycobacterium smegmatis ATCC 19420 and Mycobacterium smegmatis ATCC 19420 derivatives were quantified using broth microdilution assays as described [Clinical and Laboratory Standards Institute (CLSI/NCCLS) (2009) Methods for Dilution Antimicrobial Susceptibility Tests for Bacteria That Grow Aerobically; Approved Standard, Eighth Edition. CLIS Document M07-A8 (CLIS, Wayne Pa.)].

[3] = system: Mycobacterium avium ATCC 25291; assay: Microplate Alamar Blue assay (MABA) MIC, M. avium; conditions: ATCC25291, M. avium ATCC 25291
From the text: as §1

[4] = system: Vero E6 ATCC CRL1586 cells; assay: Mammalian-cell cytotoxicity, minimal cytotoxic concentration (CellTiter96)
Experimental: Minimal cytotoxic concentrations (MCCs) against mammalian cells in culture were determined using Vero E6 ATCC CRL1586 cells and the CellTiter96 assay kit (Promega, Inc.). […]

[5] = ATCC19420, M. smegmatis ATCC 19420, read-out: MIC Mycobacterium smegmatis ATCC 19420
[6] = ATCC19420, broth microdilution assays, M. smegmatis ATCC19420, read-out: Inhibition of mycobacterial growth in culture (MICs)

Structure (SMILES)	MIC [1] [µg/mL]	MIC [2, 5] [µg/mL]	MIC [3] [µg/mL]	MIC [2, 6] [µg/mL]	MCC mammalian cells Vero E6 ATCC CRL1586 [4] [µg/mL]
O=C(N[C@@H](Cc1ccccc1)C(=O)Nc1cc(F)ccc1N1CCNCC1)c1ccccc1F (racemic) [IX-214b]	12.5 (≈ 26.9 µM)	6.25 (≈ 13.5 µM)	12.5 (≈ 26.9 µM)		
O=C(N[C@@H](Cc1ccccc1)C(=O)Nc1cc(Cl)ccc1N1CCNCC1)c1ccccc1F (racemic) [IX-274b]	6.25 (≈ 13 µM)	6.25 (≈ 13 µM)	6.25 (≈ 13 µM)		
O=C(NC(Cc1ccccc1)C(=O)Nc1ccccc1F)c1ccccc1 [AAP3, Nα-benzoyl-N-(2-fluorophenyl)-D/L-phenylalaninamide]				1.56 (≈ 4.3 µM)	
O=C(NC(Cc1ccccc1)C(=O)Nc1ccccc1)c1ccccc1 [AAP4, Nα-benzoyl-N-phenyl-D/L-phenylalaninamide]				0.78 (≈ 2.26 µM)	
O=C(NC(Cc1ccccc1)C(=O)Nc1ccncc1)c1ccccc1 [AAP5, Nα-benzoyl-N-(4-pyridyl)-D/L-phenylalaninamide]				12.5 (≈ 36.2 µM)	
O=C(NC(Cc1ccccc1)C(=O)Nc1ccccn1)c1ccccc1 (stereo not drawn) [AAP6]				1.56 (≈ 4.52 µM)	
COc1cccc(NC(=O)C(Cc2ccccc2)NC(=O)c2ccccc2)c1C (stereo not drawn) [I-18]	> 50	0.78 (≈ 2.01 µM)	> 50		>100
CCOc1cccc(C(=O)NC(Cc2ccccc2)C(=O)Nc2ccccc2C)c1 (stereo not drawn) [I-37]	> 50	25 (≈ 62.1 µM)			5
CC(C)Oc1ccccc1NC(=O)C(Cc1ccccc1)NC(=O)c1ccccc1 (stereo not drawn) [I-50]	12.5 (≈ 31.1 µM)	0.78 (≈ 1.94 µM)	> 50		>100
Cc1c(NC(=O)C(Cc2ccccc2)NC(=O)c2ccccc2)cccc1OC(C)C (stereo not drawn) [I-51]	> 50	1.56 (≈ 3.75 µM)	> 50		>100
O=C(NC(Cc1ccccc1)C(=O)Nc1ccccc1OC(F)F)c1ccccc1 (stereo not drawn) [I-61, N-(1-((2-(difluoromethoxy)phenyl)amino)-1-oxo-3-phenylpropan-2-yl)benzamide]	6.25 (≈ 15.2 µM)	0.39 (≈ 0.95 µM)	6.25 (≈ 15.2 µM)		>100
Cc1ccccc1NC(=O)C(Cc1ccccc1)NC(=O)c1cccc(OC(F)F)c1 (stereo not drawn) [I-70]	6.25 (≈ 14.7 µM)	50 (≈ 118 µM)	> 50		90
Cc1c(F)cccc1NC(=O)C(Cc1ccccc1)NC(=O)c1ccccc1 (stereo not drawn) [I-73]	> 50	0.78 (≈ 2.07 µM)	> 50		19
Cc1cccc(C(=O)NC(Cc2ccccc2)C(=O)Nc2ccccc2C)c1 (stereo not drawn) [I-113]	> 50	1.56 (≈ 4.19 µM)			>100
CCc1cccc(C(=O)NC(Cc2ccccc2)C(=O)Nc2ccccc2C)c1 (stereo not drawn) [I-124]	> 50	25 (≈ 64.7 µM)			>39
Cc1ccccc1NC(=O)C(Cc1ccc(N2CCOCC2)cc1)NC(=O)c1ccccc1 (stereo not drawn) [I-188]	25 (≈ 56.4 µM)	6.25 (≈ 14.1 µM)			35
Cc1c(NC(=O)C(Cc2ccccc2)NC(=O)c2ccccc2)cccc1-n1cncn1 (stereo not drawn) [I-204]	25 (≈ 58.8 µM)	3.12 (≈ 7.34 µM)			>100
O=C(NC(Cc1ccccc1)C(=O)Nc1ccccc1-n1ccnn1)c1ccccc1 (stereo not drawn) [I-214]	> 50	3.12 (≈ 7.59 µM)			>100
Cc1c(NC(=O)C(Cc2ccccc2)NC(=O)c2ccccc2)cccc1-n1ccnn1 (stereo not drawn) [I-215]	> 50	3.12 (≈ 7.34 µM)			>100
O=C(NC(Cc1ccccc1)C(=O)Nc1ccccc1-n1cnnn1)c1ccccc1 (stereo not drawn) [I-225]	> 50	6.25 (≈ 15.2 µM)			>100

Structure (SMILES)	MIC [1] [µg/mL]	MIC [2, 5] [µg/mL]	MIC [3] [µg/mL]	MIC [2, 6] [µg/mL]	MCC mammalian cells Vero E6 ATCC CRL1586 [4] [µg/mL]
Cc1c(NC(=O)C(Cc2ccccc2)NC(=O)c2ccccc2)cccc1-n1cnnn1 (stereo not drawn) [I-226]	> 50	0.78 (≈ 1.83 µM)			>100
O=C(NC(Cc1ccc(O)cc1)C(=O)Nc1cccc2cnccc12)c1ccccc1 (stereo not drawn) [IX-19, N-(3-(4-hydroxyphenyl)-1-(isoquinolin-5-ylamino)-1-oxopropan-2-yl)benzamide]	6.25 (≈ 15.2 µM)	0.39 (≈ 0.948 µM)			42
Cc1ccccc1NC(=O)C(Cc1ccc(O)c(O)c1)NC(=O)c1ccccc1 (stereo not drawn) [IX-25, N-(3-(3,4-dihydroxyphenyl)-1-oxo-1-(o-tolylamino)propan-2-yl)benzamide]		1.56 (≈ 4 µM)			21
Cc1ccc(Cl)cc1NC(=O)[C@@H](Cc1ccccc1)NC(=O)c1ccccc1F [IX-55a]	0.78 (≈ 1.9 µM)	0.073 (≈ 0.178 µM)	0.78 (≈ 1.9 µM)		
Cc1ccc(Cl)cc1NC(=O)[C@H](Cc1ccccc1)NC(=O)c1ccccc1F [IX-55b]	> 50	25 (≈ 60.8 µM)	> 50		
O=C(NC(Cc1ccccc1)C(=O)Nc1cccc2ncccc12)c1ccccc1F (stereo not drawn) [IX-58, 2-fluoro-N-(1-oxo-3-phenyl-1-(quinolin-5-ylamino)propan-2-yl)benzamide]		1.56 (≈ 3.77 µM)			78
Cc1ccccc1NC(=O)C(Cc1ccc(O)cc1)NC(=O)c1ccccc1C (stereo not drawn) [IX-66, N-(3-(4-hydroxyphenyl)-1-oxo-1-(o-tolylamino)propan-2-yl)-2-methylbenzamide]	50 (≈ 129 µM)	1.56 (≈ 4.02 µM)			>100
O=C(NC(Cc1ccc(O)cc1)C(=O)Nc1cccc2c1OCO2)c1ccccc1Br (stereo not drawn) [IX-125, N-(1-(benzo[d][1,3]dioxol-4-ylamino)-3-(4-hydroxyphenyl)-1-oxopropan-2-yl)-2-bromobenzamide]	25 (≈ 51.7 µM)	1.56 (≈ 3.23 µM)	50 (≈ 103 µM)		
CC(=O)N1CCN(c2ccccc2NC(=O)C(Cc2ccccc2)NC(=O)c2ccccc2)CC1 (stereo not drawn) [IX-236, N-(1-((2-(4-acetylpiperazin-1-yl)phenyl)amino)-1-oxo-3-phenyl-propan-2-yl)benzamide]	6.25 (≈ 13.3 µM)	0.195 (≈ 0.414 µM)	6.25 (≈ 13.3 µM)		
CNC(=O)N1CCN(c2ccccc2NC(=O)C(Cc2ccccc2)NC(=O)c2ccccc2)CC1 (stereo not drawn) [IX-238, 4-(2-(2-benzamido-3-phenylpropanamido)phenyl)-N-methyl-piperazine-1-carboxamide]	1.56 (≈ 3.21 µM)	0.195 (≈ 0.402 µM)	1.56 (≈ 3.21 µM)		
O=C(NC(Cc1ccccc1)C(=O)Nc1cc(F)ccc1N1CCN(CCO)CC1)c1cccs1 (stereo not drawn) [IX-247, N-(1-((5-fluoro-2-(4-(2-hydroxyethyl)piperazin-1-yl)phenyl)amino)-1-oxo-3-phenylpropan-2-yl)thiophene-2-carboxamide]	1.56 (≈ 3.14 µM)	0.39 (≈ 0.785 µM)	3.12 (≈ 6.29 µM)		
COc1ccc(F)cc1NC(=O)C(Cc1ccccc1)NC(=O)c1ccccc1C (stereo not drawn) [IX-277, N-(1-((5-fluoro-2-methoxyphenyl)amino)-1-oxo-3-phenylpropan-2-yl)-2-methylbenzamide]	0.31 (≈ 0.763 µM)	0.39 (≈ 0.96 µM)	0.39 (≈ 0.96 µM)		
Cn1ncc2c(NC(=O)C(Cc3ccccc3)NC(=O)c3ccccc3F)cccc21 (stereo not drawn) [IX-296, 2-fluoro-N-(1-((1-methyl-1H-indazol-4-yl)amino)-1-oxo-3-phenyl-propan-2-yl)benzamide]	1.56 (≈ 3.75 µM)	0.78 (≈ 1.87 µM)	1.56 (≈ 3.75 µM)		
Cn1nnc2cccc(NC(=O)C(Cc3ccccc3)NC(=O)c3ccccc3F)c21 (stereo not drawn) [IX-300, 2-fluoro-N-(1-((1-methyl-1H-benzo[d][1,2,3]triazol-7-yl)amino)-1-oxo-3-phenylpropan-2-yl)benzamide]	6.25 (≈ 15 µM)	1.56 (≈ 3.74 µM)	6.25 (≈ 15 µM)		
Cc1ccccc1C(=O)NC(Cc1ccccc1)C(=O)Nc1cccc2nnn(C)c12 (stereo not drawn) [IX-301, 2-methyl-N-(1-((1-methyl-1H-benzo[d][1,2,3]triazol-7-yl)amino)-1-oxo-3-phenylpropan-2-yl)benzamide]	6.25 (≈ 15.1 µM)	0.39 (≈ 0.943 µM)	3.13 (≈ 7.57 µM)		
CC1CN(c2ccc(F)cc2NC(=O)C(Cc2ccccc2)NC(=O)c2ccccc2F)CCN1 (stereo not drawn) [IX-305, 2-fluoro-N-(1-((5-fluoro-2-(3-methylpiperazin-1-yl)phenyl)amino)-1-oxo-3-phenylpropan-2-yl)benzamide]	1.56 (≈ 3.26 µM)	0.78 (≈ 1.63 µM)	12.5 (≈ 26.1 µM)		
NC1CCN(c2ccc(F)cc2NC(=O)C(Cc2ccccc2)NC(=O)c2ccccc2F)C1 (stereo not drawn) [IX-306, N-(1-((2-(3-aminopyrrolidin-1-yl)-5-fluorophenyl)amino)-1-oxo-3-phenylpropan-2-yl)-2-fluorobenzamide]		0.78 (≈ 1.68 µM)			
O=C(NC(Cc1ccccc1)C(=O)Nc1cc(F)ccc1N1CC2CCCNC2C1)c1ccccc1F (stereo not drawn) [IX-307, 2-fluoro-N-(1-((5-fluoro-2-(octahydro-6H-pyrrolo[3,4-b]pyridin-6-yl)-phenyl)amino)-1-oxo-3-phenylpropan-2-yl)benzamide]	12.5 (≈ 24.8 µM)	6.12 (≈ 12.1 µM)	25 (≈ 49.5 µM)		
CC1CN(c2ccc(F)cc2NC(=O)C(Cc2ccccc2)NC(=O)c2ccccc2F)CC(C)N1 (stereo not drawn) [IX-308, N-(1-((2-(3,5-dimethylpiperazin-1-yl)-5-fluorophenyl)amino)-1-oxo-3-phenylpropan-2-yl)-2-fluorobenzamide]	3.13 (≈ 6.35 µM)	0.39 (≈ 0.792 µM)	< 0.39		
